Experiments:
[1] = Plasma levels of apoA1 after subcutaneous apoA1 injection every other day; type: in vivo, mice; settings: apoA1 s.c. every other day, steady state, days 22-24
Method: In another part of this Example, apoA1 was injected subcutaneously into mice every other day and the plasma levels of apoA1 at steady state (shown in FIG. 9 for says 22-24) were monitored. […] This approximates the plasma levels of apoA1 in humans.

[2] = test system: F10L_B16 Melanoma Tumor cells; assay: F10L_B16 melanoma in apoA1-KO mice given human ApoA1 or saline throughout the study (xenogen imaging, survival); type: in vivo; settings: vs normal saline
Method: In another part of this Example, human ApoA1 or normal saline (control) was given to apoA1-KO mice throughout duration of the study following the dosing schedule of 15 mg s.c. QOD. 10^5 F10L_B16 Melanoma Tumor cells were injected subcutaneously into the dorsum of the mice. Total tumor burden and metastases were quantified by xenogen imaging. […] Images of the mice 16 days post tumor injection are shown in FIG. 11, which show much greater tumor growth in the saline treated mice. Images of the mice 21 days post tumor injection are shown in FIG. 12, which show much greater tumor growth in the saline treated mice.

[3] = test system: malignant melanoma; assay: Malignant melanoma animal model, apoA1 given as therapy after tumor growth is established; type: in vivo, mice
Method: In another part of this Example, the impact of giving apoA1 as a therapy is evaluated after the tumor growth is established and metastases are detectable. The same malignant melanoma animal model is employed. ApoA1 injections were started one week after tumor injection. […] In the insets for both 16A and 16B, note that apoA1 injections actually shrink peak tumor volume by ˜50% within 1-2 weeks of therapy. A similar ˜50% reduction in peak metastases burden is also noted in the apoA1 treated mice.
In similar experiments, ApoA2 was given in the same dosing strategy as apoA1 vs normal saline (S) control.

[4] = 15 mg s.c. QOD throughout study
[5] = ApoA1 injections started one week after tumor injection
[6] = ApoA2 given in the same dosing strategy, vs normal saline

apolipoprotein A-1 [ApoA1]
plasma level of apoA1 [1]: 75 to 175 mg/dL
metastases formation (xenogen imaging) [2, 4]: blocks tumor growth and metastases formation
tumor growth (total tumor burden, xenogen imaging) [2, 4]: blocks tumor growth
survival ([2]; 15 mg s.c. QOD): much greater survival
metastases formation [3, 5]: dramatically reduced
overall tumor growth [3, 5]: dramatically reduced
potency at reducing cancer growth compared with ApoA2 [3, 6]: markedly more potent
potency at reducing metastases formation compared with ApoA2 [3, 6]: markedly more potent
reduction in peak metastases burden ([3]; injections started one week after tumor injection): ~50%
shrinkage of peak tumor volume ([3]; injections started one week after tumor injection, within 1-2 weeks of therapy): ~50%
